Patent publication US4060527A, “Pyrido[2,3-c]-acridine-1-hydroxy-2-carboxylic acid derivatives” (Fuji Chemical Industries, Ltd., priority 1975, dated 1977)
Converted amounts (≈) assume the structure as drawn. Read-outs that look alike come from different tables or passages of the source.

Columns and labels:
[1] = test system: Staphylococcus aureus; assay: Antibacterial activity (MIC) against Staphylococcus aureus as Gram-positive bacterium; format: cell-based; settings: Staphylococcus aureus; Table 3, class symbols; read-out: Antibacterial Activity (MIC) Staph. aureus
Protocol: (§1) Some of the compounds of this invention were tested as to their antibacterial activity (MIC, mcg/ml) against Staph. aureus as Gram-positive bacterium and E. coli as Gram-negative bacterium. In the table, the antibacterial activity of 0.09 to 1.25 mcg/ml. is indicated as A1, and the antibacterial activity of more than 1.25 mcg/ml. and not more than 2.5 mcg/ml. is indicated as A2.

[2] = test system: Escherichia coli; assay: Antibacterial activity (MIC) against Escherichia coli as Gram-negative bacterium; format: cell-based; settings: Escherichia coli; Table 3, class symbols; read-out: Antibacterial Activity (MIC) E. coli
Protocol: as §1

[3] = test system: Staphylococcus aureus; assay: Antibacterial activity (MIC) against Staphylococcus aureus as Gram-positive bacterium; format: cell-based; settings: for MBC: Table 1, bacteriocidal, read-out: Staphylococcus aureus bacteriocidal action; for MIC: Table 1, bacteriostatic, read-out: Staphylococcus aureus bacteriostatic action (MIC)
[4] = test system: Escherichia coli; assay: Antibacterial activity (MIC) against Escherichia coli as Gram-negative bacterium; format: cell-based; settings: for MBC: Table 1, bacteriocidal, read-out: Escherichia coli bacteriocidal action; for MIC: Table 1, bacteriostatic, read-out: Escherichia coli bacteriostatic action (MIC)
[5] = in vivo; settings: mouse
[6] = Acute toxicity LD50 on mouse; settings: in vivo, sc
[7] = in vivo; cited from earlier work

Compound | MIC [1] [µg/mL] | MIC [2] [µg/mL] | MBC [3] [µg/mL] | MIC [3] [µg/mL] | MBC [4] [µg/mL] | MIC [4] [µg/mL] | LD50 ([5]; iv) [mg/kg] | LD50 ([5]; po) [mg/kg] | LD50 [6] [mg/kg] | toxicity [7]
O=C(O)c1cnc2ccc3c(-c4ccccc4)c4ccccc4nc3c2c1O [Compound F-633] | 0.09 to 1.25 (≈ 0.246 to 3.41 µM) | 0.09 to 1.25 (≈ 0.246 to 3.41 µM) | 1.25 (≈ 3.41 µM) | 1.25 (≈ 3.41 µM) | 1.25 (≈ 3.41 µM) | 1.25 (≈ 3.41 µM) | 245 | > 5000 | > 3000 | –
acriflavin | – | – | – | – | – | – | – | – | – | fairly high toxicity, and exhibit high toxicity in internal administration
O=C(O)c1cnc2ccc3cc4ccccc4nc3c2c1O [Compound F-631] | 0.09 to 1.25 (≈ 0.31 to 4.31 µM) | 0.09 to 1.25 (≈ 0.31 to 4.31 µM) | 1.25 (≈ 4.31 µM) | 1.25 (≈ 4.31 µM) | 1.25 (≈ 4.31 µM) | 1.25 (≈ 4.31 µM) | 230 | > 5000 | > 3000 | –
Cc1cc2cc3ccccc3nc2c2c(O)c(C(=O)O)cnc12 [Compound F-632] | 0.09 to 1.25 (≈ 0.296 to 4.11 µM) | 0.09 to 1.25 (≈ 0.296 to 4.11 µM) | 2.5 (≈ 8.22 µM) | 1.25 (≈ 4.11 µM) | 1.25 (≈ 4.11 µM) | 0.62 (≈ 2.04 µM) | 253 | > 5000 | > 3000 | –
